Source: patent US20050037446A1, “Agents that recognize src when phosphorylated at serine 17” (priority 2001, published 2005)

Assays:
[1] = test system: Rap1; conditions: NIH3T3 cells, pretreatment; cited from earlier work
[2] = test system: Raf-1 and Rap1; assay: Association of Raf-1 with His-Rap1 (Ni-NTA pull-down), NIH3T3 cells; assay type: cell-based; conditions: Forskolin-stimulated NIH3T3 cells
Description: NIH3T3 cells were transfected using Lipofectamine (see EXAMPLE 1) with polyhistidine-tagged Rap1 along with CBR or Cb1-ct (see EXAMPLE 2) as previously described (Schmitt and Stork, Mol. Cell. Biol. 21:3671-83, 2001; Schmitt and Stork, J. Biol. Chem. 275:25342-50,2000). Cells were left untreated or stimulated with Forskolin, as described in EXAMPLE 1. Subsequently, cells were lysed in ice-cold buffer containing 1% NP40, 10 mM Tris, pH 8.0, 20 mM NaCl, 30 mM MgCl2, 1 mM PMSF, and 0.5 mg/ml aprotinin and supernatants prepared by low speed centrifugation. Transfected His-Rap1 proteins were precipitated from supernatants containing equal amounts of protein using Ni-NTA agarose (Qiagen Inc., Chatswoth, Calif.) and washed with 20 mM imidazole in lysis buffer and eluted with 500 mM imidazole and 5 mM EDTA in phosphate-buffered saline. The eluates containing His-Rap1 proteins were separated on SDS-PAGE, blotted onto PVDF membranes, and Raf-1 proteins detected by Western blotting using anti-Raf-1 antibodies (Santa Cruz Biotechnology Inc.).

[3] = test system: ERK1/2; assay: ERK1/2 phosphorylation Western blot, NIH3T3 cells; assay type: cell-based; conditions: inhibition of SFKs
Description: To determine the role of SFKs in cAW's antagonism of extracellular signal regulated kinase (ERK) activation, the following methods were used. NIH3T3 cells were incubated in the presence or absence of either H89 or PP2 for 20 minutes, pretreated with Forskolin for five minutes, and then stimulated with 100 ng/ml, epidermal growth factor (EGF, Sigma), or 100 ng/ml platelet-derived growth factor (PDGF, Sigma) for five minutes, as described in EXAMPLE 1. Cell lysates were analyzed by Western blot for phosphorylation of endogenous ERK1/2 or total ERK2. To detect phosphorylation of endogenous ERK1/2, phosphorylation-specific ERK antibodies (PERK) that recognize phosphorylated ERK1 (pERK1) and ERK2 (pERK2), at residues threonine 183 and tyrosine 185 were used (New England Biolabs, Beverly, Mass.).

[4] = test system: Ras; assay: Ras activation affinity assay (GST-Raf1-RBD), Hek293 cells; assay type: cell-based
Description: Endogenous GTP-loaded Ras was determined using a Ras activation affinity assay as follows. Hek293 cells were grown, stimulated, and lysed as described above. Activated Ras was assayed as previously described (Schmitt and Stork, Mol. Cell. Biol. 21:3671-83, 2001). Briefly, equivalent amounts of lysates from stimulated cells were incubated with GST-Rafl-RBD (Ras-binding domain) as specified by the manufacturer (Upstate Biotechnology, Lake Placid, N.Y.). Proteins were eluted with 2×Laemmli buffer and applied to a 12% SDS polyacrylamide gel. Proteins were transferred to a PVDF membrane, blocked at room temperature for 1 hour in 5% milk and probed with either Ras or Flag antibody overnight at 4° C., followed by an HRP-conjugated anti-mouse secondary. Proteins were detected using enhanced chemiluminescence.
Mutation of tyrosine 527 of Src to phenylanaline (Y527F) produces a constitutively active (oncogenic) Src by eliminating the inhibitory phosphorylation at Y527 (Xu et al. Mol. Cell. 3(5): 629-38, 1999; Brown and Cooper, Biochim. Biophys. Acta 1287(2-3): 121-49, 1996). To determine the effect of this mutant on Ras and Rap1 activation, Hek293 cells were transfected with Flag-tagged Rap1 or Flag-tagged Ras, in the presence or absence of pcDNA3, SrcY527F, SrcS17A/Y527F, SrcS17D/Y527F, CBR, or Cb1-ct using the methods described above. […]

[5] = test system: Cb1/C3G with Src; assay: Co-immunoprecipitation of Src, Cb1 and C3G, Hek293 cells; assay type: cell-based
Description: To examine whether a similar mechanism might underlie signaling from GPCRs, the following methods were used. Hek293 cells were transfected with Flag-tagged SrcWT, SrcS17A, or SrcS17D, using the methods disclosed herein. Cells were treated with 10 μM isoproterenol and equivalent amounts of lysates immunoprecipitated with Flag antibody. The presence of endogenous Cb1 within the eluates was examined by Western blotting. The ability of isoproterenol to induce Rap1-recruitment of B-Raf was blocked by both Cb1-ct and CBR.
Cells were treated with isoproterenol or left untreated and equal amounts of lysates immunoprecipitated with Myc antibody and the presence of endogenous C3G within the eluates examined by Westein blot using the methods disclosed herein.
Equivalent amounts of lysates were immunoprecipitated with Flag antibody and the presence of endogenous C3G within the eluates was examined by Western blots as described herein.

Structure (SMILES): O=S(=O)(NCCNC/C=C/c1ccc(Br)cc1)c1cccc2cnccc12 [H89, N-[2(Bromocimamylamino)ethyl]-5-isoquinolinesulfonamide]
- Effect on Forskolin's activation of endogenous Rap1 [1]: blocked

Structure (SMILES): CC(C)(C)n1nc(-c2ccc(Cl)cc2)c2c(N)ncnc21 [PP2, 4-amino-5-(4-chlorophenyl)-7-(t-butyl)pyazolo[3,4-d]pyrimidine]
- Effect on association between Raf-1 and Rap1 [2]: blocked
- Effect on EGF's or PDGF's activation of ERKs [3]: no observable effect
- Effect on Forskolin's inhibition of ERKs [3]: prevented Forskolin's inhibition of ERKs

Structure (SMILES): CC(C)NCC(O)c1ccc(O)c(O)c1 (stereo not drawn) [isoproterenol]
- Activation of endogenous Ras [4]: activated endogenous Ras
- Association between C3G and transfected Cb1 [5]: induced an association
